Laboratory results taken from patent publication US20220233688A1, “ADJUVANTS FOR IMMUNOGENIC COMPOSITIONS AND METHODS OF USE THEREOF” (UNIVERSITY OF MARYLAND, BALTIMORE, priority 2019, published 2022).
“Also recorded” adds a separate entry of the source.

Legend:
[1] = reported in literature (21); cited from earlier work
[2] = tested on: A/Netherlands/602/2009 (H1N1) (NL/09) virus; format: in vivo, BALB/c mice; conditions: 7 days
[3] = tested on: RSV A2; format: in vivo, Balb/c mice; conditions: IM days 0 and 21, RSV A2 challenge, lung four days after challenge (day 39)
[4] = tested on: HPV16-L1 VLPs; set-up: species or system BALB/c mice; conditions: mouse, in vivo
[5] = tested on: A/Netherlands/602/2009 (H1N1) (NL/09) virus; experiment: Lung tissue histology inflammation scoring after NL/09 challenge; format: in vivo, BALB/c mice; conditions: 0.04 ug rHA alone or with 100 ug Alum or 50 ug PHAD/BECC, prime-boost
Experimental: Staining of lung tissue was performed by the UMB EM and Histology Laboratory to assess any histological signs and potential clearing of viral infection. 4% Paraformaldehyde-fixed (Sigma-Aldrich, St Louis, Mo.) lungs were embedded in paraffin and sectioned before staining with haematoxylin and eosin (H&E). Representative slides were selected to most accurately portray the condition of the lungs within each group of vaccinated mice. Pathology scoring was performed by Dr (LT) Robert Kitz, Anatomic Pathologist, Walter Reed National Military Medical Center, Bethesda, Md. Lung sections from each mouse were scored based on overall inflammation using the following scoring parameters (group scores averaged): 0=no inflammation, 1=scant inflammation (<5% multifocal or one small focus); 2=prominent inflammation, <25% parenchyma; 3=prominent inflammation, 25-50% parenchyma; 4=diffuse inflammation, 50-75% parenchyma; 5=diffuse inflammation, >75% parenchyma.

[6] = tested on: Cal/09 rHA; set-up: species or system BALB/c mice; conditions: mouse, in vivo

Row | Compound | particle size of aqueous formulation [1] [nm] | average weight loss [2] [%] | protection by lung viral titers [3] | L1 ELISA Ab levels [4] | histological inflammation scoring of lung [5] | Day 28 total serum IgG antibody titer [6] | HA-specific IgG2a titer [6]
1 | CCCCCCCCCCCCCC(=O)O[C@H](CCCCCCCCCCC)CC(=O)O[C@@H]1[C@@H](NC(=O)C[C@H](CCCCCCCCCCC)OC(=O)CCCCCCCCCCCCC)[C@H](OC[C@H]2O[C@H](O)[C@H](NC(=O)C[C@H](O)CCCCCCCCCCC)[C@@H](OC(=O)C[C@H](O)CCCCCCCCCCC)[C@@H]2O)O[C@H](CO)[C@H]1OP(=O)(O)O [GLA, glucopyranosyl lipid-A] | 90 | – | – | – | – | – | –
2 | phosphorylated hexa-acyl disaccharide [PHAD] | – | 10 | full protection in the lower respiratory tract | greater L1 ELISA Ab levels compared to alum alone | low inflammation scores with minimal bronchiolar or periarterial inflammation | significant difference between the HA alone and PHAD groups; also recorded: somewhat higher | significantly higher than sham
